Laboratory results taken from ChEMBL document CHEMBL1201862, “PubChem BioAssay data set” (2004).
Active and inactive are the calls of the source.

What was measured:
Keap1/Nrf2 = Keap1/Nrf2 (Homo sapiens, UniProt Q14145); assay: disruptors of Keap1 binding to Nrf2 peptide – biochemical, fluorescence polarization, cherry-picked samples, dose response (AID 588683)
[1] = target: T1, Zinc finger protein mex-5 (Caenorhabditis elegans, UniProt Q9XUB2); assay: potency of MEX-5 RNA-binding blockers – biochemical, C. elegans, fluorescence polarization, dose response (AID 1960)
T1 sequence (Q9XUB2 whole entry): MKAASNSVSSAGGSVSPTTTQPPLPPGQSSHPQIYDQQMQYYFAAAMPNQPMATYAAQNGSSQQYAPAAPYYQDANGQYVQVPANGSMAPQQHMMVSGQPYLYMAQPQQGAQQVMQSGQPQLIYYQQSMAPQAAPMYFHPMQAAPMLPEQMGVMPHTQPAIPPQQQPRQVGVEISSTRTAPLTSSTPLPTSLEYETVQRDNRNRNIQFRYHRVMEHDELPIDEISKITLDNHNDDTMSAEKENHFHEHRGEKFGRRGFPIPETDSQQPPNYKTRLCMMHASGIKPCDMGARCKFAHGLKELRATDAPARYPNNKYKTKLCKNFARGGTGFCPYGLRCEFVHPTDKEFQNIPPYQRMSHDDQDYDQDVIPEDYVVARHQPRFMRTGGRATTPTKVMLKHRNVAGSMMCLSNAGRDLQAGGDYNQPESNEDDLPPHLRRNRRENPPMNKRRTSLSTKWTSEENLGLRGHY

Estrogen receptor beta = Estrogen receptor beta (Homo sapiens, UniProt Q92731); assay: blockers of SRC-3 recruitment to ERβ – biochemical, ELISA, streptavidin-HRP readout, orthogonal assay, confirmation (AID 1060)
Estrogen receptor beta, sequence (Q92731 whole entry): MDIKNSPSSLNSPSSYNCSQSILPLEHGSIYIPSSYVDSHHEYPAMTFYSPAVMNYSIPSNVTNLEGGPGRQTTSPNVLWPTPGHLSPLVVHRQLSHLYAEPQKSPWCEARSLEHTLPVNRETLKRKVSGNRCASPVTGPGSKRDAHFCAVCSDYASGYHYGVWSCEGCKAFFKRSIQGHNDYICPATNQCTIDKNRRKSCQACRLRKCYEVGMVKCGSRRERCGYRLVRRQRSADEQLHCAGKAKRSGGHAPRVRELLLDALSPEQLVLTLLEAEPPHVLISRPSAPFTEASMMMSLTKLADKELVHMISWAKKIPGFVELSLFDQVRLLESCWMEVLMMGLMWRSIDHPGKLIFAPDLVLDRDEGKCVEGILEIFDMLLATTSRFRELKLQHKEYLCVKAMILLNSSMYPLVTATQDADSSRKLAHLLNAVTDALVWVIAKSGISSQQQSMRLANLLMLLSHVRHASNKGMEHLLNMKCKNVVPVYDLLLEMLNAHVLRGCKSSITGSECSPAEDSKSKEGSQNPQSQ

[2] = target: T2, Mannose-6-phosphate isomerase (Homo sapiens, UniProt P34949); assay: MPI inhibition at elevated mannose 6-phosphate – biochemical, fluorescence intensity, high mannose 6-phosphate, primary screen (AID 1220)
T2 sequence (P34949 whole entry): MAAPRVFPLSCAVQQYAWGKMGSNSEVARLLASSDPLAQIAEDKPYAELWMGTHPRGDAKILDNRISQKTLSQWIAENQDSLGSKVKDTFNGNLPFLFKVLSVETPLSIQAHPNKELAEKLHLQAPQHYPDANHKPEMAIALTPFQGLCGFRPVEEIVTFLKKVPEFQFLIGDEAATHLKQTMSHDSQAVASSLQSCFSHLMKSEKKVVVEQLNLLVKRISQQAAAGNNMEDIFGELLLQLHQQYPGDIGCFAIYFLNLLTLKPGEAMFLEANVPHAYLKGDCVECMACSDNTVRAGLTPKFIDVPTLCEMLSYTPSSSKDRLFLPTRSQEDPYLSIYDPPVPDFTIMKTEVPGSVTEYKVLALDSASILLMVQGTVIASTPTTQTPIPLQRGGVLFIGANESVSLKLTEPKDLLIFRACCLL

[3] = target: Protein-tyrosine kinase 2-beta (Homo sapiens, UniProt Q14289);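 note: potency of inhibitors of PYK2 kinase phosphorylation of poly-GT substrate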
Protein-tyrosine kinase 2-beta, sequence (Q14289 whole entry): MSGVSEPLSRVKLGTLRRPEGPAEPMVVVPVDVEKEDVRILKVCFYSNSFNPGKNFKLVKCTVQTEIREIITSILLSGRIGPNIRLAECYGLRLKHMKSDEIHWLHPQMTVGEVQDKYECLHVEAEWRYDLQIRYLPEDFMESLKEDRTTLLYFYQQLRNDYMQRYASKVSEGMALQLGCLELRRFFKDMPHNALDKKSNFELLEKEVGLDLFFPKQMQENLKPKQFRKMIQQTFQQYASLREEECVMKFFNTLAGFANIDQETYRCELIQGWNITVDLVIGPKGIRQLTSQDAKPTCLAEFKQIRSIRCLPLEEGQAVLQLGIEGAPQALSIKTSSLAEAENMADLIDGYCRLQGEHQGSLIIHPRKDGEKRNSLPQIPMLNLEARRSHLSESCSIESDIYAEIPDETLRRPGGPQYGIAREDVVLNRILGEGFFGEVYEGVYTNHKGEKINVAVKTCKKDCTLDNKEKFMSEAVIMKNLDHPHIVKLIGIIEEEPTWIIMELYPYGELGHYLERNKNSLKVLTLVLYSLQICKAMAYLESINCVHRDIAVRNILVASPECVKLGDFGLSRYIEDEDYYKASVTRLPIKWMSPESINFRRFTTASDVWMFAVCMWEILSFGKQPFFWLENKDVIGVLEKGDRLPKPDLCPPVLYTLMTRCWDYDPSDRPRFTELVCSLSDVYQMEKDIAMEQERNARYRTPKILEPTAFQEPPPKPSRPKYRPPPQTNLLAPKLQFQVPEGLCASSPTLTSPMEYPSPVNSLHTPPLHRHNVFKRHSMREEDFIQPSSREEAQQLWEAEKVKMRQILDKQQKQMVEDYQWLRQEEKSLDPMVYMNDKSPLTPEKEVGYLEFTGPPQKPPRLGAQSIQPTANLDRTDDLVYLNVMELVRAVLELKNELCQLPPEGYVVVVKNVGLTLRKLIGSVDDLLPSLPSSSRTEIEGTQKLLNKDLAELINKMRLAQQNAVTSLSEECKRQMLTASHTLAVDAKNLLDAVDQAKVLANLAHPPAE

[4] = IC50 of Artemis nuclease activity blockers – biochemical, fluorescence intensity, dose response (AID 720701); assay type: functional;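 note: Artemis endonuclease enzyme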
[5] = Luminescence Cell-Based Dose Response HTS to Identify Inhibitors of 5'UTR Stem-Loop Driven Prion Protein mRNA Translation in H4 Neuroglioblastoma Cells. [Related pubchem assays: 1827 (Project Summary), 1813 (Primary HTS)]; assay type: functional
[6] = target: T3, Lysine-specific demethylase 4A (Homo sapiens, UniProt O75164); assay: inhibition of JMJD2A H3K9me3 demethylation – biochemical, DELFIA europium, cherry-picked samples, selectivity assay for GASC-1 inhibitor project, dose response (AID 488840)
T3 sequence (O75164 whole entry): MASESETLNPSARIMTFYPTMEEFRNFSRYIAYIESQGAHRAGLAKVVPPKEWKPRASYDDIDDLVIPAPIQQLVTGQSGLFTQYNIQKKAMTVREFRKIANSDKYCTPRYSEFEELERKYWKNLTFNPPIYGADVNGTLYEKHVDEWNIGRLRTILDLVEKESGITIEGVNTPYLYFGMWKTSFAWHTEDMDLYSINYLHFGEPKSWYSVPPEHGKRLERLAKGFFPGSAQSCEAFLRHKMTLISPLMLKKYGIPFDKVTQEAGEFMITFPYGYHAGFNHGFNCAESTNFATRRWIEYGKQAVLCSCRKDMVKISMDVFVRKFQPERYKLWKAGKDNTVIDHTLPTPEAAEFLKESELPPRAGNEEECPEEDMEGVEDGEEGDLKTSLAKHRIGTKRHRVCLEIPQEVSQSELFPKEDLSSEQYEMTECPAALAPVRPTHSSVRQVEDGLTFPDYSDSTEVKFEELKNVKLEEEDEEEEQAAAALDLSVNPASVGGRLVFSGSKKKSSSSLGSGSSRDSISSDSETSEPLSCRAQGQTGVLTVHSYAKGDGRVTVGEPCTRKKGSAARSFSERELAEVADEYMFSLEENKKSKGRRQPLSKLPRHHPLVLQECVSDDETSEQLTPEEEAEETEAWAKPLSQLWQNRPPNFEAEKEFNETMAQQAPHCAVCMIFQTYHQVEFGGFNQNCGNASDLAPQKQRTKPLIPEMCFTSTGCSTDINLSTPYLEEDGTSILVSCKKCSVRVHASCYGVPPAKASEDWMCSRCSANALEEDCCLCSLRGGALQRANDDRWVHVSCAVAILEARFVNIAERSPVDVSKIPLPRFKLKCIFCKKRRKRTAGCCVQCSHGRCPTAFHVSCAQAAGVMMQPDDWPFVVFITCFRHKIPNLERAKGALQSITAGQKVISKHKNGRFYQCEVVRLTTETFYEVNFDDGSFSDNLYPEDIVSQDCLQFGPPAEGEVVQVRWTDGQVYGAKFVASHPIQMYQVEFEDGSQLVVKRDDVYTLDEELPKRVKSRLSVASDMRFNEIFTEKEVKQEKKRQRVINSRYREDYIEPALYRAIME

[7] = target: Dual specificity protein phosphatase 3 (Homo sapiens, UniProt P51452); assay: VHR1 phosphatase inhibitors, biochemical (AID 1878)
Dual specificity protein phosphatase 3, sequence (P51452 whole entry): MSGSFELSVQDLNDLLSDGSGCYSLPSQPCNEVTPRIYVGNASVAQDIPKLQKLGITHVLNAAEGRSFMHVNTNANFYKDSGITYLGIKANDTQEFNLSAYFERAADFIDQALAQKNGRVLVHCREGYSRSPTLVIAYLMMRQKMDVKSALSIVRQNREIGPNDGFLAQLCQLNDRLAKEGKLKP

Keap1/Nrf2, sequence (Q16236 whole entry): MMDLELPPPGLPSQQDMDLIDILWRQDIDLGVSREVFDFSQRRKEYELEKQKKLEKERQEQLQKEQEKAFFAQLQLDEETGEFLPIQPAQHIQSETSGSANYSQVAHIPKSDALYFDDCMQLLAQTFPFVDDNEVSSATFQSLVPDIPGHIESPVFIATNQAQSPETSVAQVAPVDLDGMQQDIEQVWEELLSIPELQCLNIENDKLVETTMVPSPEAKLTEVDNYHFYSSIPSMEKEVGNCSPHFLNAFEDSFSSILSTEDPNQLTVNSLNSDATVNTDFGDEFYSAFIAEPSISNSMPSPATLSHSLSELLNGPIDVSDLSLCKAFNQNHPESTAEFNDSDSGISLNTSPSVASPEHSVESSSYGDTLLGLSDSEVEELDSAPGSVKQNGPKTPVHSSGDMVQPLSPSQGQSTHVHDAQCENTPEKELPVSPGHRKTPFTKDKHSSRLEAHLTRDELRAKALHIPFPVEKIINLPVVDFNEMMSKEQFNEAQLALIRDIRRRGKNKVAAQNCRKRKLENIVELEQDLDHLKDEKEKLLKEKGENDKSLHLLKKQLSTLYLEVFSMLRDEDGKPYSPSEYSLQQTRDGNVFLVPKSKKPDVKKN
Keap1/Nrf2, sequence (Q14145 whole entry): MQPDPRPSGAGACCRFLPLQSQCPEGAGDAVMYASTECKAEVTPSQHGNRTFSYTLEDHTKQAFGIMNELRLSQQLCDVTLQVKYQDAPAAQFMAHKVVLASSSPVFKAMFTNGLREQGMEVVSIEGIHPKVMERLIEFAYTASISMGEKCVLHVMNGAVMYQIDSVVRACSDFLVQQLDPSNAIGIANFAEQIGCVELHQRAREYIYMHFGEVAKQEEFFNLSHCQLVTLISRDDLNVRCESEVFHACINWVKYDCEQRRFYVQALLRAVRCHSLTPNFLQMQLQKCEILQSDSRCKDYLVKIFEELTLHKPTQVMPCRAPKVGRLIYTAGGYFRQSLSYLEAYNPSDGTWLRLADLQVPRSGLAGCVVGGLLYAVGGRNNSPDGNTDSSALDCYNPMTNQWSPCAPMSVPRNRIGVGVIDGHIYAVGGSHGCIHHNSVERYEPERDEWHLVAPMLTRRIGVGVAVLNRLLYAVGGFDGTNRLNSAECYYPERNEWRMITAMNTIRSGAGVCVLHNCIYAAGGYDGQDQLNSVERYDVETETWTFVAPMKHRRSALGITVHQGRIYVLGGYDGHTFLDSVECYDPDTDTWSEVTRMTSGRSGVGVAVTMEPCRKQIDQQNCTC

## Nc1ccc2nc3c(O)nc(S)nc3nc2c1
Keap1/Nrf2
  AC50: 3.55 µM (active)
[1]
  EC50: 1.67 µM (inconclusive)

## COc1ccc(C(=O)Nc2nc3c(s2)Cc2cc(OC)ccc2-3)cc1
Estrogen receptor beta
  IC50: < 0.023 µM (not active)

## Cc1oc2c(c1C(=O)c1ccccc1)C(=O)C(=O)c1ccccc1-2
[2]
  IC50: > 50 µM (not active)
[3]
  IC50: > 69.5 µM (not active)
[4]
  IC50: 1.48 µM (active)
[5]
  EC50: > 120 µM (not active)

## CSc1ccc(C=NNc2ccc(S(=O)(=O)Nc3ccccc3C(=O)O)cc2[N+](=O)[O-])cc1
[6]
  AC50: 12.4 µM (active)

## O=C(O)COc1ccc(/C=N/NC(=O)c2ccc(-c3csc(Nc4ccc(Cl)cc4)n3)cc2)cc1
[7]
  IC50: 1.3 µM (active)
